How the values were obtained:
B16F10 tumor = assay: microPET quantification (ROI analysis) of tumors and other organs in B16F10 tumor-bearing mice; assay type: in vivo, C57BL/6 mice; settings: for tumor uptake: tail vein, B16F10 tumor
Procedure: B16F10 was cultured in Dulbecco's modified Eagle high-glucose medium (Gibco Life Sciences) supplemented with 10% fetal bovine serum with penicillin and streptomycin. The cells were regularly maintained in a 37° C., 5% CO2 humidified incubator. The subcutaneous B16F10 tumor models were prepared with 5- to 6-wk-old male C57BL/6 mice (Charles River). Static microPET scans were performed on the B16F10 tumor-bearing mice and representative decay-corrected coronal images at 0.5, 1, and 2 h after tail vein injection of ^18F-P3BZA (3-^18F-fluoropicolinamide) probe and ^18F-P2BZA (2-^18F-fluoronicotinamide) probe are shown in FIG. 2 (n=5 for each group), from which the B16F10 tumors were clearly visualized with good tumor-to-background contrast for both tracers (the white arrows indicate the tumors).
The microPET quantification analysis of tumors and other organs was obtained from the ROI analysis and the results at 0.5, 1, and 2 h p.i. are shown in FIG. 3. The tumor uptake of 18F-F3BZA probe was 11.8±2.2, 13.2±2.4, and 14.5±3.2% ID/g at 0.5, 1, and 2 h p.i., respectively. For ^18F-P2BZA probe, the tumor uptake was 5.5±1.6, 4.6±2.4, 5.5±2.6% ID/g at 0.5, 1, and 2 h p.i., respectively. […] The unspecific uptake by muscle is very low, 0.8±0.4, 1.0±0.5, 0.6±0.3% ID/g at 0.5, 1, and 2 h p.i.), which is the explanation of the high contrast images shown in FIG. 2.
(§1) The ^18F-fluoropicolinamides were prepared by radiofluorination reactions using no-carrier-added ^18F-fluoride and evaluated in vivo by biodistribution studies and micro-positron emission tomography (microPET) imaging in C57BL/6 mice bearing B16F10 murine melanoma tumors.

[1] = tested on: B16F10 murine melanoma tumors; assay: Noninvasive microPET and direct tissue sampling (biodistribution) in subcutaneous B16F10 melanoma xenografts; assay type: in vivo, C57BL/6 mice
Procedure: as §1
The total synthesis time was less than 1 hour. The radiochemical purity of the ^18F-labeled probes was more than 98% and the specific activity was 100-150 GBq/μmol.

| tumor uptake (B16F10 tumor; 0.5 h post injection) | tumor uptake (B16F10 tumor; 1 h post injection) | tumor uptake (B16F10 tumor; 2 h post injection) | Kidneys uptake (B16F10 tumor; 0.5 h p.i.) | Liver uptake (B16F10 tumor; 0.5 h p.i.) | unspecific uptake by muscle (B16F10 tumor; 0.5 h p.i.) | Kidneys uptake (B16F10 tumor; 1 h p.i.) | Liver uptake (B16F10 tumor; 1 h p.i.) | unspecific uptake by muscle (B16F10 tumor; 1 h p.i.) | Kidneys uptake (B16F10 tumor; 2 h p.i.) | Liver uptake (B16F10 tumor; 2 h p.i.) | unspecific uptake by muscle (B16F10 tumor; 2 h p.i.) | tumor uptake (B16F10 tumor; 2 h post injection, listed as 18F-F3BZA) | tumor to muscle ratio (B16F10 tumor; at 2 h) | clearance from the blood (B16F10 tumor; mouse, in vivo) | in vivo stability ([1]; evidenced by bone uptake) | bone uptake in biodistribution studies ([1]; mouse, in vivo) | bone uptake (B16F10 tumor; 1 h postinjection) | bone uptake (B16F10 tumor; 2 h postinjection) | defluorination in the murine model (B16F10 tumor; evidenced by bone uptake) | Substance |
| --- | --- | --- | --- | --- | --- | --- | --- | --- | --- | --- | --- | --- | --- | --- | --- | --- | --- | --- | --- | --- |
| 5.5±1.6 % ID/g | 4.6±2.4 % ID/g | 5.5±2.6 % ID/g | – | – | – | – | – | – | – | – | – | – | – | – | – | – | – | – | – | 2-^18F-fluoronicotinamide [^18F-P2BZA, reference compound] |
| 11.8±2.2 % ID/g | 13.2±2.4 % ID/g | 14.6±3.2 % ID/g | 6.9±1.1 % ID/g | 5.1±0.8 % ID/g | 0.8±0.4 % ID/g | 4.7±0.8 % ID/g | 4.3±1.1 % ID/g | 1.0±0.5 % ID/g | 3.0±0.6 % ID/g | 3.0±0.6 % ID/g | 0.6±0.3 % ID/g | 14.5±3.2 % ID/g | 25.3 | cleared rapidly | good | low | – | – | – | 3-^18F-fluoropicolinamide [^18F-P3BZA] |
| 10.7±1.3 % ID/g | 10.5±1.8 % ID/g | 8.7±2.3 % ID/g | – | – | – | – | – | – | – | – | – | – | – | – | – | – | 11.3±2.9 % ID/g | 10.3±3.6 % ID/g | very high | 4-^18F-fluoropicolinamide [^18F-P4BZA] |
